{"source": "patent US10799590B2", "about": "“Compositions containing a bitter tastant and at least one sophorolipid, and methods of reducing bitter taste attributed to a bitter tastant in an edible composition” (The United States of America, as Represented by the …, priority 2015, dated 2020)", "target": "T1, sweet receptor (T1R2+T1R3) (Homo sapiens, UniProt Q7RTX0)", "T1 construct": "culture human fungiform taste papillae cells retaining their physiological and molecular characteristics; endogenous in cells; host or cells: cultured primary human fungiform taste papillae (HBO) cells", "T1 sequence (Q7RTX0 21-852)": "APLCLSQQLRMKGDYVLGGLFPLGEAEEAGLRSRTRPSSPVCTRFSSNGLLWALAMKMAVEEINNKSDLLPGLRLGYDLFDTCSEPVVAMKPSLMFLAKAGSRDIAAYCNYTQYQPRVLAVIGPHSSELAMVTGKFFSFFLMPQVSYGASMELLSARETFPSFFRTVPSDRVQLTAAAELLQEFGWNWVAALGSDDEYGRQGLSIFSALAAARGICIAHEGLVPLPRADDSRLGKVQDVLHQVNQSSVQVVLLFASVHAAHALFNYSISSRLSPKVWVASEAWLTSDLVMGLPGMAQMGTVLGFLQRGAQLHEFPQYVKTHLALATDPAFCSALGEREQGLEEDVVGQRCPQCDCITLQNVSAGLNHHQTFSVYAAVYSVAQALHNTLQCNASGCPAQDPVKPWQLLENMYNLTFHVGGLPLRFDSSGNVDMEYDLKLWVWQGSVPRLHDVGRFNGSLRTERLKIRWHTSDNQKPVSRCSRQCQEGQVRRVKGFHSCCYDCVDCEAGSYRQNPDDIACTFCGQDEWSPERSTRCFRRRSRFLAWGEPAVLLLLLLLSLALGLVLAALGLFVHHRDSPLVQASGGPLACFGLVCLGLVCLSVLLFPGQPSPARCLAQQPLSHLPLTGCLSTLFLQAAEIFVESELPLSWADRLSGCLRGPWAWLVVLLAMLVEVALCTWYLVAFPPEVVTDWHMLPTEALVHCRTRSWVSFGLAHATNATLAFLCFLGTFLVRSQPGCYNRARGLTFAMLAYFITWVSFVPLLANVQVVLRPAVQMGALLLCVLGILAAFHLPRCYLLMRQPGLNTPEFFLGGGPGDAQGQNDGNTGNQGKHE", "T1 sequence (Q8TE23 20-839 partner)": "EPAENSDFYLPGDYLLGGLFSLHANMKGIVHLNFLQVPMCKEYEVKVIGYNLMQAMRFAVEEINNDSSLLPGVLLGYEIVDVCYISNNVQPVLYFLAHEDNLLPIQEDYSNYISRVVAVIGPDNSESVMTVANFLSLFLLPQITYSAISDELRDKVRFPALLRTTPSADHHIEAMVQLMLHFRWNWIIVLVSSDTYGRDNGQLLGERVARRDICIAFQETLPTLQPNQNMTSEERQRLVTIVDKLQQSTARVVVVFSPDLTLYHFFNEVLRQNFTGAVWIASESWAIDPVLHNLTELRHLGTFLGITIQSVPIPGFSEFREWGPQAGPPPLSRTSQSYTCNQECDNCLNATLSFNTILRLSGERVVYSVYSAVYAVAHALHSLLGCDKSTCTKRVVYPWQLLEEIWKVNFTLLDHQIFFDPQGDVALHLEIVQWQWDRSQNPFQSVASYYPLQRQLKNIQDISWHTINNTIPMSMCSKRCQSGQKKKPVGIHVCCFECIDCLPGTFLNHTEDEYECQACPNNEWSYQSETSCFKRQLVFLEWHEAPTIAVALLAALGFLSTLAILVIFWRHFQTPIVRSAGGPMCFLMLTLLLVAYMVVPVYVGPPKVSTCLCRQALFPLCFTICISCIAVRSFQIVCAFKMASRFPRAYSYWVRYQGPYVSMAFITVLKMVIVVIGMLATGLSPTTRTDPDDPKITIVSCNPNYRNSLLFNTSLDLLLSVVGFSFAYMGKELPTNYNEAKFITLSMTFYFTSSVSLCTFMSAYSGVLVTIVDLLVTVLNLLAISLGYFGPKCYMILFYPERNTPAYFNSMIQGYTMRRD", "assay": "Lactisole sensitivity of sophorolipid-induced calcium responses in cultured HBO cells", "assay_type": "cell-based", "conditions": "lactisole = T1R3 blocker; C16-SL-responsive cells n=29 (FIG. 4)", "text": "In vitro cell-based assay of sweet property. Establishment and maintenance of cultures of human fungiform taste papillae cells (HBO cells): We previously established the current proprietary protocol (Ozdener, H., et al., Chem. Senses, 31(3): 279-90 (2006); Ozdener, M. H., et al., Chem. Senses, 36(7): 601-12 (2011); Ozdener, H., et al., Isolation and culture of human fungiform taste papillae cells, J. Vis. Exp., 2012 May 17;(63):e3730) which allowed us to culture human fungiform taste papillae cells retaining their physiological and molecular characteristics for more than a year.\nThe human fungiform taste papillae cells were cultured according to protocols that we have published (Ozdener et al. 2006, Ozdener et al. 2011). […]\nCalcium imaging: Cultured taste cells grown for 3-4 days glass coverslips which were loaded for 30-60 min with the calcium sensitive dye fura-2 by incubating the cells in Ringer solution (145 mM NaCl, 5 mM KCl, 1 mM MgCl2, 1 mM CaCl2, 1 mM Na-pyruvate, 20 mM Hepes-Na and Cellobiose 15 mM, pH 7.2 with osmolarity adjusted to 300-310 by 5M NaCl) supplemented with […] (Molecular Probes Inc., Eugene, Oreg.) and 10 mg/ml Pluronic® F127 (Molecular Probes Inc.). […] Stimuli were dissolved in Ringer and then pH and osmolarity readjusted if needed. […]"}
{"smiles": "OC[C@H]1O[C@@H](O[C@@H]2[C@@H](O)[C@H](O)[C@@H](CO)O[C@H]2O)[C@H](O)[C@@H](O)[C@@H]1O", "note": "[Sophorose, 2-O-β-D-glucopyranosyl-β-D glucopyranose]", "values": [{"measurement": "effect of lactisole on induced Ca responses, lactisole-sensitive HBO cells", "value": "lactisole sensitive"}]}
